Test results reported in ChEMBL document CHEMBL6127087 (Eur J Med Chem, 2024).
pIC50, pKd: −log10 of the molar value. Active and inactive are the calls of the source. The calls are words filed in the database; no cut-off is given here.

Columns and labels:
P2Y purinoceptor 6 [1] = target: T1, P2Y purinoceptor 6 (Homo sapiens, UniProt Q15077); assay: Antagonist activity at human P2Y6R expressed in CHO cells assessed as inhibition of UDP sodium salt-induced Ca2+ level by FLIPR calcium 6 assay; type: functional, cell-based
P2Y purinoceptor 6 [2] = target: T1, P2Y purinoceptor 6; assay: Binding affinity to P2Y6R (unknown origin) assessed as dissociation constant by SPR analysis
[3] = target: P2Y purinoceptor 2 (Homo sapiens) (UniProt P41231); assay: Antagonist activity at human P2Y2R stably expressed in HEK293 cells assessed as inhibition of UTP-induced IP3 accumulation preincubated with compound for 30 mins followed by UTP addition by ELISA; type: functional, cell-based
HUVEC = assay: Cytotoxicity against HUVEC cells assessed as reduction in cell survival at >10 uM incubated for 12 to 24 hrs by CCK8 assay; type: toxicity, cell-based; details: human, time 12-24 hrs
Cytochrome P450 1A2 = target: T2, Cytochrome P450 1A2 (Homo sapiens, UniProt P05177); assay: Inhibition of CYP1A2 in human liver microsomes using phenacetin as substrate preincubated for 10 mins followed by NADPH addition and measured after 10 mins by LC-MS/MS analysis; type: ADME, Microsome
T2 sequence (P05177 whole entry): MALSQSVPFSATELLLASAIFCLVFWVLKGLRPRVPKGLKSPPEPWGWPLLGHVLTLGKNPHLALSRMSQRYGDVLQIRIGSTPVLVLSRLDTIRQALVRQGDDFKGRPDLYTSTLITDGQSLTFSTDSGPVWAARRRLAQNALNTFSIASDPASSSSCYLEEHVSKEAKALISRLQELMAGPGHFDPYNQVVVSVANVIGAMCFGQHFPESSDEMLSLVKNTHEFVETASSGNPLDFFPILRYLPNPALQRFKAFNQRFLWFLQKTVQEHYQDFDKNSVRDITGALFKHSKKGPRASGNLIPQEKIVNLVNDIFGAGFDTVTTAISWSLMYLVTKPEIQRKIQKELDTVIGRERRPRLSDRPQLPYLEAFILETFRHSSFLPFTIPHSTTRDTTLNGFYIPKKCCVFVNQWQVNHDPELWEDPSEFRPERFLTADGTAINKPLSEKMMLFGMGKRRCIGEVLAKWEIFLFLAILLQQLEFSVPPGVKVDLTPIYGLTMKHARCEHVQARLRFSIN

Cytochrome P450 2D6 = Cytochrome P450 2D6 (Homo sapiens, UniProt P10635); assay: Inhibition of CYP2D6 in human liver microsomes using […] as substrate preincubated for 10 mins followed by NADPH addition and measured after 10 mins by LC-MS/MS analysis; type: ADME, Microsome
[4] = target: Voltage-gated inwardly rectifying potassium channel KCNH2 (Homo sapiens, UniProt Q12809); assay: Inhibition of human ERG by PatchXpress analysis; type: toxicity
[5] = Stability in simulated gastric fluid assessed as half-life; type: physicochemical
[6] = Metabolic stability in human liver microsomes assessed as intrinsic clearance preincubated for 10 mins followed by NADPH addition and measured upto 60 mins by LC-MS/MS analysis; type: ADME, Microsome; details: time < 70 min, read-out: CLH
[7] = Cmax in male Sprague-Dawley rat at 10 mg/kg, iv measured after 24 hrs by LC-MS/MS analysis; type: ADME, organism-based; details: male, Sprague-Dawley, in vivo, read-out: Cmax
[8] = Half-life in male Sprague-Dawley rat at 10 mg/kg, iv measured after 24 hrs by LC-MS/MS analysis; type: ADME, organism-based; details: male, Sprague-Dawley, in vivo
[9] = Tmax in male Sprague-Dawley rat at 10 mg/kg, iv measured after 24 hrs by LC-MS/MS analysis; type: ADME, organism-based; details: male, Sprague-Dawley, in vivo, read-out: Tmax (converted)
[10] = AUC (0 to 24 hrs) in male Sprague-Dawley rat at 10 mg/kg, iv measured after 24 hrs by LC-MS/MS analysis; type: ADME, organism-based; details: in vivo
[11] = Cmax in male Sprague-Dawley rat at 20 mg/kg, po measured after 24 hrs by LC-MS/MS analysis; type: ADME, organism-based; details: male, Sprague-Dawley, in vivo, read-out: Cmax
[12] = Tmax in male Sprague-Dawley rat at 20 mg/kg, po measured after 24 hrs by LC-MS/MS analysis; type: ADME, organism-based; details: male, Sprague-Dawley, in vivo, read-out: Tmax (converted)
[13] = AUC (0 to 24 hrs) in male Sprague-Dawley rat at 20 mg/kg, po measured after 24 hrs by LC-MS/MS analysis; type: ADME, organism-based; details: male, Sprague-Dawley, in vivo
Mus musculus [14] = assay: (§1) Anti-inflammatory activity in LPS-induced male C57BL/6 mouse model of acute […] injury assessed as reduction in IL-1beta level in BALF at 2 to 6 mg/kg, IG preadministered with compound for 7 days followed by LPS administration and measured after 24 hrs by ELISA; type: functional, organism-based; details: dose 2-6 mg/kg, time 8.0 day
Mus musculus [15] = assay: as §1, with “infiltration of immune cells by measuring decrease” for “IL-1beta level”, “monocytes count” for “BALF”, “hrs” for “hrs by ELISA”; type: functional, organism-based; details: dose 2-6 mg/kg, time 8.0 day
Mus musculus [16] = assay: Anti-inflammatory activity in LPS-induced male C57BL/6 mouse model of acute […] injury assessed as reduction in neutrophil elastase level in BALF at 2 to 6 mg/kg, IG preadministered with compound for 7 days followed by LPS administration and measured after 24 hrs by ELISA; type: functional, organism-based; details: dose 2-6 mg/kg, time 8.0 day
Mus musculus [17] = assay: as §1, with “alveolar septa thickening” for “IL-1beta level”, “lung” for “BALF”, “H and E staining based histopathological analysis” for “ELISA”; type: functional, organism-based; details: dose 2-6 mg/kg, time 8.0 day
Mus musculus [18] = assay: as §1, with “tissue destruction” for “IL-1beta level”, “lung” for “BALF”, “H and E staining based histopathological analysis” for “ELISA”; type: functional, organism-based; details: dose 2-6 mg/kg, time 8.0 day
Mus musculus [19] = assay: as §1, with “absence of lesion” for “reduction”, “lung parenchyma” for “IL-1beta level in BALF”, “H and E staining based histopathological analysis” for “ELISA”; type: functional, organism-based; details: dose 2-6 mg/kg, time 8.0 day
Mus musculus [20] = assay: Anti-inflammatory activity in LPS-induced male C57BL/6 mouse model of acute […] injury assessed as inhibition of CXCL1 mRNA expression at 2 to 6 mg/kg, IG preadministered with compound for 7 days followed by LPS administration and measured after 24 hrs by RT-PCR analysis; type: functional, organism-based; details: dose 2-6 mg/kg, time 8.0 day
Mus musculus [21] = assay: Anti-inflammatory activity in LPS-induced male C57BL/6 mouse model of acute […] injury assessed as inhibition of CCL2 mRNA expression at 2 to 6 mg/kg, IG preadministered with compound for 7 days followed by LPS administration and measured after 24 hrs by RT-PCR analysis; type: functional, organism-based; details: dose 2-6 mg/kg, time 8.0 day
Mus musculus [22] = assay: Anti-inflammatory activity in LPS-induced male C57BL/6 mouse model of acute […] injury assessed as inhibition of CXCL10 mRNA expression at 2 to 6 mg/kg, IG preadministered with compound for 7 days followed by LPS administration and measured after 24 hrs by RT-PCR analysis; type: functional, organism-based; details: dose 2-6 mg/kg, time 8.0 day
Mus musculus [23] = assay: Anti-inflammatory activity in LPS-induced male C57BL/6 mouse model of acute […] injury assessed as inhibition of CXCL1 release at 2 to 6 mg/kg, IG preadministered with compound for 7 days followed by LPS administration and measured after 24 hrs by ELISA; type: functional, organism-based; details: dose 2-6 mg/kg, time 8.0 day
Mus musculus [24] = assay: In vivo inhibition of NLRP3 activation in LPS-induced male C57BL/6 mouse model of acute […] injury assessed as reduction in NLRP3 level in lung at 2 to 6 mg/kg, IG preadministered with compound for 7 days followed by LPS administration and measured after 24 hrs by Western blot analysis; type: functional, organism-based; details: dose 2-6 mg/kg, time 8.0 day

T1 sequence (Q15077 whole entry): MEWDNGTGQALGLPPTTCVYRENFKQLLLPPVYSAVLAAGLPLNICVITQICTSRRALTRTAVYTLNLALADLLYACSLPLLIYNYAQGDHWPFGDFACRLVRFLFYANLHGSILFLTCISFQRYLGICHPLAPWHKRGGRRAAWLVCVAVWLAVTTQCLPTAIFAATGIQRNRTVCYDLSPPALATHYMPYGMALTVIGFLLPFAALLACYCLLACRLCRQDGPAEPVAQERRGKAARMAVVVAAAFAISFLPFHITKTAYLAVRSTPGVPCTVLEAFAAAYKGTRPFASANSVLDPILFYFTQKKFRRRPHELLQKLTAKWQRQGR
Sequence of P2Y purinoceptor 2 (Homo sapiens) (P41231 whole entry): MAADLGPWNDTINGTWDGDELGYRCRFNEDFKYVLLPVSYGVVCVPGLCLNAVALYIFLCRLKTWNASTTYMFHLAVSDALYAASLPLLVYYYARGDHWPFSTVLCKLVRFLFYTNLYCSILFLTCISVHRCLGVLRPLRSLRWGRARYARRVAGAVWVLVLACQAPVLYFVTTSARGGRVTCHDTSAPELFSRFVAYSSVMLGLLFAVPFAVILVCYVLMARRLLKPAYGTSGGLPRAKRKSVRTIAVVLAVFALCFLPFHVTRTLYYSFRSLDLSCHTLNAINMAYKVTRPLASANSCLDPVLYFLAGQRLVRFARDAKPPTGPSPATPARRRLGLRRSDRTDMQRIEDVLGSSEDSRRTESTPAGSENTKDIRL
Sequence of Voltage-gated inwardly rectifying potassium channel KCNH2 (Q12809 whole entry): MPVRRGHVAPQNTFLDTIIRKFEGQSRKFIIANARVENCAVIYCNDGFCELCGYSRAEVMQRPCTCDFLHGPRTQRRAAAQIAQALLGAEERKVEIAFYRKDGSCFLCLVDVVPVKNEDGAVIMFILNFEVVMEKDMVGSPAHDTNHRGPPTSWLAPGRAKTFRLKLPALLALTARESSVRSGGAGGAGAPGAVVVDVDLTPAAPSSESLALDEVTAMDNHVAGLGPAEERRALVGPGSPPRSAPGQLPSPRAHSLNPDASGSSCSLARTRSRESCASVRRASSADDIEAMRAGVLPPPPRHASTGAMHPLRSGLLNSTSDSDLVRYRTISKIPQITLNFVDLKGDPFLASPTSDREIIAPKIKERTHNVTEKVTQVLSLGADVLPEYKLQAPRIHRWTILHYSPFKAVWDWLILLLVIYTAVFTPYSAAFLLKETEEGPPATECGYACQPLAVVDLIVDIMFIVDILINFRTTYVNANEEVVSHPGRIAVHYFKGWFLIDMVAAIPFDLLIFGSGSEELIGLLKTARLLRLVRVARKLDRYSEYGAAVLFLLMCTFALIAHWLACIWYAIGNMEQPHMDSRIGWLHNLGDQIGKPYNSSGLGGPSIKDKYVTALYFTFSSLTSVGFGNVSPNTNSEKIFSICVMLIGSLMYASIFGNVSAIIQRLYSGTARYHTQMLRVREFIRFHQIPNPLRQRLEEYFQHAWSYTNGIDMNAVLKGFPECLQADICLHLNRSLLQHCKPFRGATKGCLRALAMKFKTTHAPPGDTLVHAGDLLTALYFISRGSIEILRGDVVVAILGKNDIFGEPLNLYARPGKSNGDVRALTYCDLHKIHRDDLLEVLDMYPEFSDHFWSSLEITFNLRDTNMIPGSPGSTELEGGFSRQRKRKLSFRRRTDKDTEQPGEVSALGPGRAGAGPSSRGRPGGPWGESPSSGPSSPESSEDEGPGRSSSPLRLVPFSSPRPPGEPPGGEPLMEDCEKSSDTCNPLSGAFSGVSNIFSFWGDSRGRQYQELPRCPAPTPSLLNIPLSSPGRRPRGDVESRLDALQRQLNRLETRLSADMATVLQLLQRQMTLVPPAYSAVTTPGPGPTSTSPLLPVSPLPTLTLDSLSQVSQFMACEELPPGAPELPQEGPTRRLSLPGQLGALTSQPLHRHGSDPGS
Sequence of Cytochrome P450 2D6 (P10635 whole entry): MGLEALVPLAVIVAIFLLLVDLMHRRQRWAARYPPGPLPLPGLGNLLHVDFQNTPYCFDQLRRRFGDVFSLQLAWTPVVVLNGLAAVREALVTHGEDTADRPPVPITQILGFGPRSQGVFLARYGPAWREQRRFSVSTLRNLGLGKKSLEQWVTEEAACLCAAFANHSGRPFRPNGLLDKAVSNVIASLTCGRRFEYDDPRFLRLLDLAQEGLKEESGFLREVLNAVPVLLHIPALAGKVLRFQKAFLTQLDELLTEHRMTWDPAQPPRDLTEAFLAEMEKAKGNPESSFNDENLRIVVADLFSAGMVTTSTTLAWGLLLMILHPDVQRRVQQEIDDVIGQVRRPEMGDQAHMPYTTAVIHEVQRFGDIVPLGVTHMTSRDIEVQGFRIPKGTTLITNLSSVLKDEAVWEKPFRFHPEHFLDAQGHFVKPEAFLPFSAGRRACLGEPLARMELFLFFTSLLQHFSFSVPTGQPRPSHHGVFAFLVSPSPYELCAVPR

pIC50 (P2Y purinoceptor 6 [1]): 7.71
pKd (P2Y purinoceptor 6 [2]): 5.85
Activity [3]: inactive
pIC50 (Cytochrome P450 1A2): < 4.30
pIC50 (Cytochrome P450 2D6): < 4.30
half-life [5]: > 50 h
microsomal CLint [6]: 18.6 µL/min/mg
Cmax [7]: 1410 ng/mL
half-life [8]: 90 min
Tmax [9]: 28 min
AUC [10]: 1956 ng·h/mL
Cmax [11]: 2940 ng/mL
Tmax [12]: 46 min
AUC(0-t) at 24 h [13]: 2980 ng·h/mL
SMILES: O=C(O)CCC(=O)N1N=C(c2ccc[nH]2)CC1c1cnc2ccccc2c1 (configuration not stated)
Activity (HUVEC): Non-Toxic
pIC50 [4]: < 4.30
Activity (Mus musculus [14]): Active
Activity (Mus musculus [15]): Active
Activity (Mus musculus [16]): Active
Activity (Mus musculus [17]): Active
Activity (Mus musculus [18]): Active
Activity (Mus musculus [19]): Active
Activity (Mus musculus [20]): Active
Activity (Mus musculus [21]): Active
Activity (Mus musculus [22]): Active
Activity (Mus musculus [23]): Active
inhibition (Mus musculus [24]): Active
